Like-named read-outs stand apart in the source and are kept apart here.
Molecular target: T1, full-length human PKCι (Homo sapiens, UniProt P41743)
T1 construct: Recombinant, full-length human PKCι expressed in Sf21 insect cells is also commercially available; purchased; host or cells: Sf21 insect cells
T1 sequence (P41743 1-596): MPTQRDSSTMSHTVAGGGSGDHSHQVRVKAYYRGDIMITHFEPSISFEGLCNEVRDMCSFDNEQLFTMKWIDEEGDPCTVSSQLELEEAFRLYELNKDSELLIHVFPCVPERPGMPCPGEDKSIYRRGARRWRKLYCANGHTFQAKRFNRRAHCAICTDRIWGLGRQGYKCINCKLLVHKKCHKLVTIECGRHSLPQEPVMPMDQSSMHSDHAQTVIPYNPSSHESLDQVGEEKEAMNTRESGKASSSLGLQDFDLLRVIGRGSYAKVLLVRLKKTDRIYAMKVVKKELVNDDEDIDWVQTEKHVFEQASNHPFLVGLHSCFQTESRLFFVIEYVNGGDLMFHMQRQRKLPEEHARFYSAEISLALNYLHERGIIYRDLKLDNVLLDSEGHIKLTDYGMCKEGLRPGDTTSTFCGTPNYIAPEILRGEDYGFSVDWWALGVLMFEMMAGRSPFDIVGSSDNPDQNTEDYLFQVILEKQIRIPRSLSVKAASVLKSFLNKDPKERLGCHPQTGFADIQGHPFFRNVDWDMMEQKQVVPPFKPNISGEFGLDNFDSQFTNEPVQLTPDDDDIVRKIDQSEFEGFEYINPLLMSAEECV
Experiment: PKCι IC50 IMAP fluorescence polarisation assay, full-length enzyme
Assay type: biochemical
Conditions: full length PKCi at 15 μM ATP
Method: Assays are based on the ability of PKCι to phosphorylate a commercially available peptide substrate in vitro. […] Recombinant, full-length human PKCι expressed in Sf21 insect cells is also commercially available. Recombinant, kinase-domain human PKCι is expressed and purified in-house.
The procedure below explains how dose response curves for inhibitors of PKCι are obtained.
Compounds to be tested are dissolved in 100% DMSO. […] 1 μl is plated into 384 well black low-binding flat bottomed assay plates which are used immediately. Dilutions and additions of compound to assay plates are carried out using Matrix WellMate® and Matrix PlateMate® Plus liquid handling systems.
The final concentration of peptide substrate in the assay is 100 nM. […] Relevant controls are included, namely no compound and no enzyme. […] The reaction is allowed to incubate for 60 minutes at room temperature, before the reaction is stopped and developed by the addition of 20 μl IMAP™ development reagent (Molecular Devices). IMAP development reagent consists of 0.25% (v/v) IMAP progressive binding reagent, 17% (v/v) IMAP progressive binding buffer A and 3% (v/v) IMAP progressive binding buffer B. The plates are then incubated for 2 hours at room temperature before being read using an appropriate plate reader, for example a Molecular Devices HT Analyst or a BMG Pherastar.

[1] = read-out: IC50 in IMAP assay against full length PKCi
[2] = read-out: IC50 in IMAP assay against full length PKCi (Activity)

Structure (SMILES): C[C@@H](O)CNc1cc(-c2nc(N[C@@H]3CCNC3)c3sccc3n2)ccn1 [compound 592, (R)-1-{4-[4-((R)-Pyrrolidin-3-ylamino)-thieno[3,2-d]pyrimidin-2-yl]-pyridin-2-ylamino}-propan-2-ol]
- IC50 [1]: 1000 to 10000 nM

Structure (SMILES): N[C@H](CNc1nc(-c2ccncc2)nc2c(-n3ccnn3)csc12)Cc1ccccc1 [compound 562, (S)-3-Phenyl-N*1*-(2-pyridin-4-yl-7-[1,2,3]triazol-1-yl-thieno[3,2-d]pyrimidin-4-yl)-propane-1,2-diamine]
- IC50 [1]: 100 to 1000 nM

Structure (SMILES): Fc1cccc(Nc2csc3c(N[C@@H]4CCNC4)nc(-c4ccncc4F)nc23)c1 [compound 499, N*7*-(3-Fluoro-phenyl)-2-(3-fluoro-pyridin-4-yl)-N*4*-(R)-pyrrolidin-3-yl-thieno[3,2-d]pyrimidine-4,7-diamine]
- IC50 [1]: 1000 to 10000 nM

Structure (SMILES): Brc1csc2c(N[C@@H]3CCCNC3)nc(-c3ccncc3)nc12 [compound 343, (7-Bromo-2-pyridin-4-yl-thieno[3,2-d]pyrimidin-4-yl)-(R)-piperidin-3-yl-amine]
- IC50 [1]: 100 to 1000 nM

Structure (SMILES): CC(C)C#Cc1csc2c(NC[C@@H](N)Cc3ccccc3)nc(-c3ccncc3)nc12 [compound 518, (S)-N*1*-[7-(3-Methyl-but-1-ynyl)-2-pyridin-4-yl-thieno[3,2-d]pyrimidin-4-yl]-3-phenyl-propane-1,2-diamine]
- IC50 [1]: 100 to 1000 nM

Structure (SMILES): N[C@H](CNc1nc(-c2ccncc2)nc2sc3c(c12)CCOC3)Cc1ccccc1 [compound 82, (S)-3-Phenyl-N*1*-(2-pyridin-4-yl-5,8-dihydro-6H-pyrano[4′,3′:4,5]thieno[2,3-d]pyrimidin-4-yl)-propane-1,2-diamine]
- IC50 [2]: 1000 to 10000 nM

Structure (SMILES): Fc1cnc(Nc2cnccn2)cc1-c1nc(N[C@@H]2CCNC2)c2sccc2n1 [compound 580, {2-[5-Fluoro-2-(pyrazin-2-ylamino)-pyridin-4-yl]-thieno[3,2-d]pyrimidin-4-yl}-(R)-pyrrolidin-3-yl-amine]
- IC50 [1]: 100 to 1000 nM

Structure (SMILES): N[C@H](CNc1nc(-c2ccncc2F)nc2c(-c3cc[nH]c3)csc12)Cc1ccccc1 [compound 420, (S)-N*1*-[2-(3-Fluoro-pyridin-4-yl)-7-(1H-pyrrol-3-yl)-thieno[3,2-d]pyrimidin-4-yl]-3-phenyl-propane-1,2-diamine]
- IC50 [1]: 100 to 1000 nM

Structure (SMILES): Cc1sc2c(NC[C@@H](N)Cc3ccccc3)nc(-c3ccncc3)nc2c1-c1cc(Cl)ccc1OC(C)C [compound 460, (S)-N*1*-[7-(5-Chloro-2-isopropoxy-phenyl)-6-methyl-2-pyridin-4-yl-thieno[3,2-d]pyrimidin-4-yl]-3-phenyl-propane-1,2-diamine]
- IC50 [1]: 10000 to 40000 nM

Structure (SMILES): N[C@@H](CNc1nc(-c2ccncc2)nc2sc3c(c12)CCC1(C3)OCCO1)Cc1ccccc1 [compound 79, (R)-3-Phenyl-N*1*-*-1,4-Dioxa-spiro[7.7]-(2-pyridin-4-yl-5,6,7,8-tetrahydro-benzo[4,5]thieno[2,3-d]pyrimidin-4-yl)-propane-1,2-diamine]
- IC50 [2]: 100 to 1000 nM

Structure (SMILES): C[C@@H](Nc1cc(-c2nc(N[C@@H]3CCNC3)c3sccc3n2)ccn1)c1ccccc1 [compound 586, {2-[2-((R)-1-Phenyl-ethylamino)-pyridin-4-yl]-thieno[3,2-d]pyrimidin-4-yl}-(R)-pyrrolidin-3-yl-amine]
- IC50 [1]: 100 to 1000 nM

Structure (SMILES): O=C(Nc1cc(-c2nc(N[C@@H]3CCNC3)c3sccc3n2)ccn1)N1CCCCC1 [compound 584, Piperidine-1-carboxylic acid {4-[4-((R)-pyrrolidin-3-ylamino)-thieno[3,2-d]pyrimidin-2-yl]-pyridin-2-yl}-amide]
- IC50 [1]: 1000 to 10000 nM

Structure (SMILES): CC(C)(C)/C=C/c1csc2c(NC[C@@H](N)Cc3ccccc3)nc(-c3ccncc3)nc12 [compound 406, (S)-N*1*-[7-((E)-3,3-Dimethyl-but-1-enyl)-2-pyridin-4-yl-thieno[3,2-d]pyrimidin-4-yl]-3-phenyl-propane-1,2-diamine]
- IC50 [1]: 1000 to 10000 nM

Structure (SMILES): NC(CNc1nc(-c2ccncc2)nc2sc3c(c12)CCCC3)Cc1c[nH]c2ccccc12 (stereo in doubt) [compound 63, (S)-3-(1H-Indol-3-yl)-N*1*- (2-pyridin-4-yl-5,6,7,8-tetrahydro-benzo[4,5]thieno[2,3-d]pyrimidin-4-yl)-propane-1,2-diamine]
- IC50 [2]: 1000 to 10000 nM

Structure (SMILES): N[C@H](CNc1nc(-c2ccncc2)nc2c(C#Cc3ccccc3F)csc12)Cc1ccccc1 [compound 530, (S)-N*1*-[7-(2-Fluoro-phenylethynyl)-2-pyridin-4-yl-thieno[3,2-d]pyrimidin-4-yl]-3-phenyl-propane-1,2-diamine]
- IC50 [1]: 100 to 1000 nM

Structure (SMILES): NC(CNc1nc(-c2ccncc2F)nc2c(-c3ccc(F)cc3)csc12)Cc1ccccc1 (stereo in doubt) [compound 430, (R)-N*1*-[7-(4-Fluoro-phenyl)-2-(3-fluoro-pyridin-4-yl)-thieno[3,2-d]pyrimidin-4-yl]-3-phenyl-propane-1,2-diamine]
- IC50 [1]: 1000 to 10000 nM

Structure (SMILES): CC(C)(C)c1sc2c(NC[C@H](N)Cc3ccccc3)nc(-c3ccncc3)nc2c1Br [compound 335, (R)-N*1*-(7-Bromo-6-tert-butyl-2-pyridin-4-yl-thieno[3,2-d]pyrimidin-4-yl)-3-phenyl-propane-1,2-diamine]
- IC50 [1]: 10000 to 40000 nM

Structure (SMILES): CNC(=O)Nc1cc(-c2nc(N[C@@H]3CCNC3)c3sccc3n2)ccn1 [compound 583, 1-Methyl-3-{4-[4-((R)-pyrrolidin-3-ylamino)-thieno[3,2-d]pyrimidin-2-yl]-pyridin-2-yl}-urea]
- IC50 [1]: 1000 to 10000 nM

Structure (SMILES): Cn1cc(-c2csc3c(NC[C@@H](N)Cc4ccccc4)nc(-c4ccncc4)nc23)cn1 [compound 411, (S)-N*1*-[7-(1-Methyl-1H-pyrazol-4-yl)-2-pyridin-4-yl-thieno[3,2-d]pyrimidin-4-yl]-3-phenyl-propane-1,2-diamine]
- IC50 [1]: 1000 to 10000 nM

Structure (SMILES): Cc1sc2c(NC[C@@H](N)Cc3ccccc3)nc(-c3ccncc3)nc2c1-c1ccc(F)nc1 [compound 438, (S)-N*1*-[7-(6-Fluoro-pyridin-3-yl)-6-methyl-2-pyridin-4-yl-thieno[3,2-d]pyrimidin-4-yl]-3-phenyl-propane-1,2-diamine]
- IC50 [1]: 1000 to 10000 nM

Structure (SMILES): CC[C@H](O)C#Cc1csc2c(NC[C@@H](N)Cc3ccccc3)nc(-c3ccncc3)nc12 [compound 521]
- IC50 [1]: < 100 nM

Structure (SMILES): Cc1csc(-c2csc3c(NC[C@@H](N)Cc4ccccc4)nc(-c4ccncc4)nc23)c1 [compound 395, (S)-N*1*-[7-(4-Methyl-thiophen-2-yl)-2-pyridin-4-yl-thieno[3,2-d]pyrimidin-4-yl]-3-phenyl-propane-1,2-diamine]
- IC50 [1]: 1000 to 10000 nM

Structure (SMILES): N[C@H](CNc1nc(-c2ccncc2)nc2ccsc12)Cc1ccccc1 [compound 314, (S)-3-Phenyl-N*1*-(2-pyridin-4-yl-thieno[3,2-d]pyrimidin-4-yl)-propane-1,2-diamine]
- IC50 [1]: 100 to 1000 nM

Structure (SMILES): N#Cc1ccc(Nc2cc(-c3nc(N[C@@H]4CCNC4)c4sccc4n3)ccn2)nc1 [compound 604, 6-{4-[4-((R)-Pyrrolidin-3-ylamino)-thieno[3,2-d]pyrimidin-2-yl]-pyridin-2-ylamino}-nicotinonitrile]
- IC50 [1]: 100 to 1000 nM

Structure (SMILES): Fc1ccc(Nc2csc3c(N[C@@H]4CCNC4)nc(-c4ccncc4F)nc23)cc1 [compound 493, N*7*-(4-Fluoro-phenyl)-2-(3-fluoro-pyridin-4-yl)-N*4*-(R)-pyrrolidin-3-yl-thieno[3,2-d]pyrimidine-4,7-diamine]
- IC50 [1]: 10000 to 40000 nM

Structure (SMILES): Cc1c(Br)sc2c(N[C@@H]3CCNC3)nc(-c3ccncc3)nc12 [compound 340, (6-Bromo-7-methyl-2-pyridin-4-yl-thieno[3,2-d]pyrimidin-4-yl)-(R)-pyrrolidin-3-yl-amine]
- IC50 [1]: 100 to 1000 nM

Structure (SMILES): COC/C=C/c1csc2c(NC[C@@H](N)Cc3ccccc3)nc(-c3ccncc3)nc12 [compound 404, (S)-N*1*-[7-((E)-3-Methoxy-propenyl)-2-pyridin-4-yl-thieno[3,2-d]pyrimidin-4-yl]-3-phenyl-propane-1,2-diamine]
- IC50 [1]: 100 to 1000 nM

Structure (SMILES): O=C(Nc1cc(-c2nc(N[C@@H]3CCNC3)c3sccc3n2)ccn1)c1cccs1 [compound 595, Thiophene-2-carboxylic acid {4-[4-((R)-pyrrolidin-3-ylamino)-thieno[3,2-d]pyrimidin-2-yl]-pyridin-2-yl}-amide]
- IC50 [1]: 100 to 1000 nM

Structure (SMILES): N[C@H](CNc1nc(-c2ccncc2)nc2c(C#Cc3ccccc3)csc12)Cc1ccccc1 [compound 402, (S)-3-Phenyl-N*1*-(7-phenylethynyl-2-pyridin-4-yl-thieno[3,2-d]pyrimidin-4-yl)-propane-1,2-diamine]
- IC50 [1]: 100 to 1000 nM

Reference: patent publication US10183950B2, “Thienopyrimidine inhibitors of atypical protein kinase C” (Cancer Research Technology Limited, priority 2011, dated 2019)
